Assay results published in patent US11141403B2, “Benzimidazoles and indoles as taro inhibitors” (MERCK SHARP & DOHME CORP., priority 2015, dated 2021).

System: MRSA COL (MB5393)
Assay: TarO Inhibitor/β-Lactam Synergy Assay
Assay type: cell-based, Staphylococcus aureus
Conditions: 20 hours; for IC95: Staphylococcus aureus, TarO inhibitor alone, OD600, 95% growth inhibition, read-out: MITC95 TarO inhibitor alone, Bacteria: SA_MB5393; for MITC95 TarO inhibitor + 4 μg/mL IPM; Bacteria: SA_MB5393: in combination with 4 μg/mL imipenem; for MITC95 TarO inhibitor + 4 μg/mL IPM; Bacteria: SA_MB5393 / MITC95 TarO inhibitor + 8 μg/mL DCX; Bacteria: SA_MB5393: OD600; for MITC95 TarO inhibitor + 8 μg/mL DCX; Bacteria: SA_MB5393: in combination with 8 μg/mL dicloxacillin
Procedure: The TarO inhibitor/β-lactam synergy assay was performed to measure the re-sensitization of methicillin-resistant Staphylococci bacteria (MB5393: MRSA COL) to β-lactam antibiotics by TarO inhibitors. MRSA COL is a hospital-acquired penicillinase-negative clinically isolated strain commonly used in Staphylococcus aureus studies and is fully resistant to the antimicrobial bioactivity of β-lactam antibiotics, including but not limited to imipenem and dicloxacillin. […] MRSA COL is fully refractory to β-lactam antibiotic effect at the current clinical breakpoint concentrations and as such MRSA COL is fully viable at these concentrations.
The β-lactam antibiotic concentration was fixed at the clinical breakpoint (imipenem 4 μg/ml or dicloxacillin 8 μg/ml) and the TarO inhibitors were titrated by 2 fold starting from the highest concentration of 200 μM with final DMSO concentration of 2% in the assay. 5×10^5 colony forming unit of MRSA COL in cation-adjusted Mueller Hinton broth (CAMHB) was then mixed and the assay plate was incubated for 20 hours at 37° C. without shaking. After 20 hours, the optical density at 600 nm (OD600) was read for all wells to determine relative growth of MRSA COL.

Compound	IC95	MITC95 TarO inhibitor + 4 μg/mL IPM; Bacteria: SA_MB5393	MITC95 TarO inhibitor + 8 μg/mL DCX; Bacteria: SA_MB5393
CCN(C(=O)CCn1c2cc(-c3ccccc3)ccc2nc1[C@H]1CC[C@H](CC)CC1)C1CCCCC1 [Example 24, N-cyclohexyl-N-ethyl-3-(2-(trans-4-ethylcyclohexyl)-6-phenyl-1H-benzo[d]imidazol-1-yl)propanamide]	> 200 µM	0.04 µM	0.46 µM
CCN(C(=O)CCn1c2cc(-c3cnn(C)c3)ccc2nc1[C@H]1CC[C@H](CC)CC1)C1CCCCC1 [Example 25, N-cyclohexyl-N-ethyl-3-[2-(trans-4-ethylcyclohexyl)-6-(1-methyl-1H-pyrazol-4-yl)-1H-benzimidazol-1-yl]propanamide]	> 200 µM	0.38 µM	1.30 µM
CCN(C(=O)CCn1c2ccc(C3CC3)cc2nc1[C@H]1CC[C@H](CC)CC1)C1CCCCC1 [Example 26, N-cyclohexyl-3-[5-cyclopropyl-2-(trans-4-ethylcyclohexyl)-1H-benzimidazol-1-yl]-N-ethylpropanamide]	> 200 µM	1.30 µM	4.17 µM
CCN(C(=O)CCn1c2cc(CN)ccc2nc1[C@H]1CC[C@H](CC)CC1)C1CCCCC1 [Example 27, 3-[6-(aminomethyl)-2-(trans-4-ethylcyclohexyl)-1H-benzimidazol-1-yl]-N-cyclohexyl-N-ethylpropanamide]	> 200 µM	37.50 µM	50 µM
CCN(C(=O)CCn1c2cc(C[C@H]3CCOC3)ccc2nc1[C@H]1CC[C@H](CC)CC1)C1CCCCC1 [Example 28, N-cyclohexyl-N-ethyl-3-{2-(trans-4-ethylcyclohexyl)-6-[(3S)-tetrahydrofuran-3-ylmethyl]-1H-benzimidazol-1-yl}propanamide]	> 200 µM	1.30 µM	4.17 µM
CCN(C(=O)CCn1c2cccc(C[C@H]3CCOC3)c2nc1[C@H]1CC[C@H](CC)CC1)C1CCCCC1 [Example 29, N-cyclohexyl-N-ethyl-3-{2-(trans-4-ethylcyclohexyl)-4-[(3S)-tetrahydrofuran-3-ylmethyl]-1H-benzimidazol-1-yl}propanamide]	> 200 µM	1.56 µM	6.25 µM
CCN(C(=O)CCn1c2cc(CN3CCN(CC(F)(F)F)CC3)ccc2nc1[C@H]1CC[C@H](CC)CC1)C1CCCCC1 [Example 30, N-cyclohexyl-N-ethyl-3-[2-(trans-4-ethylcyclohexyl)-6-{[4-(2,2,2-trifluoroethyl)piperazin-1-yl]methyl}-1H-benzimidazol-1-yl]propanamide]	> 200 µM	18.75 µM	25 µM
CCN(C(=O)CCn1c2cc(CN3CC(F)(F)C3)ccc2nc1[C@H]1CC[C@H](CC)CC1)C1CCCCC1 [Example 31, N-cyclohexyl-3-{6-[(3,3-difluoroazetidin-1-yl)methyl]-2-(trans-4-ethylcyclohexyl)-1H-benzimidazol-1-yl}-N-ethylpropanamide]	> 200 µM	6.25 µM	50 µM
CCN(C(=O)CCn1c2cccc(N3CCOCC3)c2nc1[C@H]1CC[C@H](CC)CC1)C1CCCCC1 [Example 32, N-cyclohexyl-N-ethyl-3-[2-(trans-4-ethylcyclohexyl)-4-morpholin-4-yl-1H-benzimidazol-1-yl]propanamide]	> 200 µM	20.83 µM	20.83 µM
CC1(C)[C@@H]2CC[C@@]1(C)[C@H](NC(=O)CCn1c3ccccc3nc1[C@H]1CC[C@@H](C(C)(C)C)CC1)C2 [Example 33, 3-[2-(cis-4-tert-butylcyclohexyl)-1H-benzimidazol-1-yl]-N-[(1R,2R,4R)-1,7,7-trimethylbicyclo[2.2.1]hept-2-yl]propanamide]	> 200 µM	0.06 µM	–
CCN(C(=O)CCn1c(-c2ccc(OCC(F)(F)F)cc2)nc2ccccc21)C1CCCCC1 [Example 34, N-cyclohexyl-N-ethyl-3-{2-[4-(2,2,2-trifluoroethoxy)phenyl]-1H-benzimidazol-1-yl}propanamide]	> 200 µM	0.25 µM	0.54 µM
CCN(C(=O)CCn1c(C2CCCCC2)nc2ccccc21)C1CCCCC1 [Example 35, N-cyclohexyl-3-(2-cyclohexyl-1H-benzimidazol-1-yl)-N-ethylpropanamide]	> 200 µM	1.95 µM	9.38 µM
CCN(C(=O)CCn1c(-c2ccc(C(=O)OC)cc2)nc2ccccc21)C1CCCCC1 [Example 36, methyl 4-(1-{3-[cyclohexyl(ethyl)amino]-3-oxopropyl}-1H-benzimidazol-2-yl)benzoate]	> 200 µM	0.68 µM	3.91 µM
CCOc1ccc(-c2nc3ccccc3n2CCC(=O)N(CC)C2CCCCC2)cn1 [Example 38, N-cyclohexyl-3-[2-(6-ethoxypyridin-3-yl)-1H-benzimidazol-1-yl]-N-ethylpropanamide]	> 200 µM	2.08 µM	12.50 µM
CN(C(=O)CCn1c(C2CCCCC2)nc2ccccc21)C1CCCCC1 [Example 39, N-cyclohexyl-3-(2-cyclohexyl-1H-benzimidazol-1-yl)-N-methylpropanamide]	> 200 µM	4.69 µM	12.50 µM
CC(C)(C)OC(=O)NCC1CCC(c2nc3ccccc3n2CCC(=O)NC2C[C@H]3CC[C@]2(C)C3(C)C)CC1 (stereo partly drawn) [Example 40, tert-butyl ({4-[1-(3-oxo-3-{[(1R,4R)-1,7,7-trimethylbicyclo[2.2.1]hept-2-yl]amino}propyl)-1H-benzimidazol-2-yl]cyclohexyl}methyl) carbamate]	> 200 µM	2.34 µM	9.38 µM
CC(C)(C)OC(=O)N1CCC(c2nc3ccccc3n2CCC(=O)NC2C[C@H]3CC[C@]2(C)C3(C)C)C1 (stereo partly drawn) [Example 41, tert-butyl 3-[1-(3-oxo-3-{[(1R,4R)-1,7,7-trimethylbicyclo[2.2.1]hept-2-yl]amino}propyl)-1H-benzimidazol-2-yl]pyrrolidine-1-carboxylate]	> 200 µM	5.47 µM	37.50 µM
CCN(C(=O)CCn1c(-c2ccc(-n3ccnn3)cc2)nc2ccccc21)C1CCCCC1 [Example 42, N-cyclohexyl-N-ethyl-3-{2-[4-(1H-1,2,3-triazol-1-yl)phenyl]-1H-benzimidazol-1-yl}propanamide]	> 200 µM	18.75 µM	25.00 µM
CCN(C(=O)CCn1c(C2CCCN(c3nccc(OC)n3)C2)nc2ccccc21)C1CCCCC1 (centres unmarked) [Example 43, N-cyclohexyl-N-ethyl-3-(2-(1-(4-methoxypyrimidin-2-yl)piperidin-3-yl)-1H-benzo[d]imidazol-1-yl)propanamide]	100 µM	0.20 µM	0.78 µM
CCN(C(=O)CCn1c(C2CCC(C)N(c3cccc(OC)n3)C2)nc2ccccc21)C1CCCCC1 (centres unmarked) [Example 44, N-cyclohexyl-N-ethyl-3-{2-[1-(6-methoxypyridin-2-yl)-6-methylpiperidin-3-yl]-1H-benzimidazol-1-yl}propanamide]	100 µM	0.10 µM	0.20 µM
CCCCOC(=O)N1CCCC(c2nc3ccccc3n2CCC(=O)N(CC)C2CCCCC2)C1 (centres unmarked) [Example 45, butyl 3-(1-{3-[cyclohexyl(ethyl)amino]-3-oxopropyl}-1H-benzimidazol-2-yl)piperidine-1-carboxylate]	100 µM	0.20 µM	0.78 µM
CCc1nsc(N2CCCC(c3nc4ccccc4n3CCC(=O)N(CC)C3CCCCC3)C2)n1 (centres unmarked) [Example 46, N-cyclohexyl-N-ethyl-3-{2-[1-(3-ethyl-1,2,4-thiadiazol-5-yl)piperidin-3-yl]-1H-benzimidazol-1-yl}propanamide]	100 µM	1.56 µM	6.25 µM
CCN(C(=O)CCn1c(C2CCCN(c3cccc(OC)n3)C2)nc2ccccc21)C1CCCCC1 (centres unmarked) [Example 47, N-cyclohexyl-N-ethyl-3-{2-[1-(6-methoxypyridin-2-yl)piperidin-3-yl]-1H-benzimidazol-1-yl}propanamide]	100 µM	0.10 µM	0.20 µM
